Measured values from patent US20240000871A1, “Lactobacillus gasseri capable of alleviating and treating hyperuricemia” (Jiangnan University, priority 2020, published 2024).

Tested on: fecal short-chain fatty acids
Assay: Fecal short-chain fatty acids of mice with hyperuricemia
Assay type: in vivo
Settings: feces at the end of the experiment
Procedure: 24 healthy male KM mice with the weight of 38 to 44 g were randomly divided into four groups after a week of acclimatization, namely a control group, a hyperuricemia model group, an L. gasseri CCFM1133 intervention group (CCFM1133) and an allopurinol intervention group (allopurinol). Except the control group, 500 mg/kg BW hypoxanthine was given to the other groups every day by intragastric administration, and 100 mg/kg BW oteracil potassium was intraperitoneally injected to the other groups every day. At 1 h before processing with hypoxanthine and oteracil potassium, 0.4 mL of 30 g/L sucrose (a control solvent) was given to the control group and the hyperuricemia model group, L. gasseri CCFM1133 bacterial suspension (30 g/L sucrose solution containing L. gasseri CCFM1133 thallus) with the concentration of 1×10^9 CFU/mouse was given to the L. gasseri CCFM1133 intervention group, and 5 mg/kg BW allopurinol was given to the allopurinol group. […]
The short-chain fatty acids were separated by using an Rtx-Wax column. The short-chain fatty acids (acetic acid, propionic acid, isobutyric acid, butyric acid, isovaleric acid and valeric acid) were detected in a full scanning mode (the mass-to-charge ratio scanning range is 33 to 110). Characteristic ions of analyte standards were selected for quantitative analysis.

Oc1ncnc2[nH]ncc12 [allopurinol]
Effect on fecal short-chain fatty acid levels (acetic, propionic, isobutyric, butyric, isovaleric and valeric acid): does not have much of the effect
